Data taken from ChEMBL document CHEMBL1123748, “Opioid agonist and antagonist activities of monofunctional nitrogen mustard analogues of beta-chlornaltrexamine” (1987).

Key:
Cavia porcellus [1] = organism: Cavia porcellus; test: Antagonist activity was determined by partial agonist activity of EK in Guinea pig ileum (GPI); type: functional
Mus musculus [2] = organism: Mus musculus; test: IC50 ratio for leucine-enkephalin rather than DADLE determined in Mouse vas deferens (MVD); type: functional
Cavia porcellus [3] = organism: Cavia porcellus; test: Antagonist activity was determined by partial agonist activity of morphine in Guinea pig ileum (GPI); type: functional
Mus musculus [4] = organism: Mus musculus; test: Opioid agonist activity was determined in Mouse vas deferens (MVD); type: functional
Cavia porcellus [5] = organism: Cavia porcellus; test: Opioid agonist activity was determined as potency ratio relative to morphine in Guinea pig ileum (GPI); type: functional
Cavia porcellus [6] = organism: Cavia porcellus; test: Antagonist activity was determined by partial agonist activity of EK in Guinea pig ileum (GPI); irreversible agonist activity; type: functional, organism-based
Cavia porcellus [7] = organism: Cavia porcellus; test: Antagonist activity was determined by partial agonist activity of morphine in Guinea pig ileum (GPI); irreversible agonist activity; type: functional, organism-based

Compound | IC50 ratio (Cavia porcellus [1]) | IC50 ratio (Mus musculus [2]) | IC50 ratio (Cavia porcellus [3]) | IC20 (Mus musculus [4]) | Potency ratio (Cavia porcellus [5]) | IC50 ratio (Cavia porcellus [6]) | IC50 ratio (Cavia porcellus [7])
CN(CCCl)[C@@H]1CC[C@@]2(O)C3Cc4ccc(O)c5c4C2(CCN3CC2CC2)[C@H]1O5 (stereo not given in full) | 17.3 | 2.9 | 48.8 | 10 nM | 5.3 | – | –
CN(CCCl)[C@H]1CC[C@@]2(O)C3Cc4ccc(O)c5c4C2(CCN3CC2CC2)[C@H]1O5 (stereo not given in full) | – | 5 | – | 3 nM | 159 | irreversible agonist activity | irreversible agonist activity
